# Results as given in US7786108B2, “Compounds and method for treating dyslipidemia” (Eli Lilly and Company, priority 2004, dated 2010).
# Counter-ions that a name gives are not always drawn.
# Test system: transgenic mice that express both human CETP and human apolipoprotein A-1
# Test: In vivo assay of plasma lipids: elevation of HDL cholesterol
# Settings: Mus musculus; single oral dose 30 mg/kg; HDL cholesterol in serum at 8 hr after administration; relative to a control; read-out: % HDL cholesterol increase
# Description: Additional serum lipids can be analyzed by enzymatic methods.
row,Compound,change in vivo at 30 mg/kg [%]
1,"Cc1cc2c(c(C)c1C(F)(F)F)N(CCC(C)(C)CC(=O)O)CCC[C@@H]2N(Cc1cc(C(F)(F)F)cc(C(F)(F)F)c1)c1nnn(C)n1 [Example 154, (S)-5-{5-[(3,5-Bis-trifluoromethyl-benzyl)-(2-methyl-2H-tetrazol-5-yl)-amino]-7,9-dimethyl-8-trifluoromethyl-2,3,4,5-tetrahydro-benzo[b]azepin-1-yl}-3,3-dimethyl-pentanoic acid]",99
2,"Cc1cc2c(cc1C(F)(F)F)N(C(=O)OC(C)(C)C)CCC[C@@H]2N(Cc1cc(C(F)(F)F)cc(C(F)(F)F)c1)c1nnn(C)n1 [Example 17, (S)-5-[(3,5-Bis-trifluoromethyl-benzyl)-(2-methyl-2H-tetrazol-5-yl)-amino]-7-methyl-8-trifluoromethyl-2,3,4,5-tetrahydro-benzo[b]azepine-1-carboxylic acid tert-butyl ester]",73
3,"Cc1cc2c(c(C)c1C(F)(F)F)N(CC1CC1)CCC[C@@H]2N(Cc1cc(Cl)cc(C(F)(F)F)c1)c1nnn(C)n1 [Example 200, (S)-(3-Chloro-5-trifluoromethyl-benzyl)-(1-cyclopropylmethyl-7,9-dimethyl-8-trifluoromethyl-2,3,4,5-tetrahydro-1H-benzo[b]azepin-5-yl)-(2-methyl-2H-tetrazol-5-yl)-amine]",153
4,"CCC(OC(=O)N1CCCC(N(Cc2cc(C(F)(F)F)cc(C(F)(F)F)c2)c2nnn(C)n2)c2cc(C)c(C(F)(F)F)cc21)C(C)C (racemic) [Example 25, (+/−)-5-[(3,5-Bis-trifluoromethyl-benzyl)-(2-methyl-2H-tetrazol-5-yl)-amino]-7-methyl-8-trifluoromethyl-2,3,4,5-tetrahydro-benzo[b]azepine-1-carboxylic acid 1-ethyl-2-methyl-propyl ester]",142
5,"Cc1cc2c(cc1C(F)(F)F)N(CC1CCC(CC(=O)O)CC1)CCCC2N(Cc1cc(C(F)(F)F)cc(C(F)(F)F)c1)c1nnn(C)n1 (stereo not shown) [Example 31, (4-{5-[(3,5-Bis-trifluoromethyl-benzyl)-(2-methyl-2H-tetrazol-5-yl)-amino]-7-methyl-8-trifluoromethyl-2,3,4,5-tetrahydro-benzo[b]azepin-1-ylmethyl}-cyclohexyl)-acetic acid]",114
6,"Cc1cc2c(cc1C(F)(F)F)N(Cc1cncc(C(=O)O)c1)CCC[C@@H]2N(Cc1cc(C(F)(F)F)cc(C(F)(F)F)c1)c1nnn(C)n1 [Example 142, (S)-5-{5-[(3,5-Bis-trifluoromethyl-benzyl)-(2-methyl-2H-tetrazol-5-yl)-amino]-7-methyl-8-trifluoromethyl-2,3,4,5-tetrahydro-benzo[b]azepin-1-ylmethyl}-nicotinic acid hydrochloride]",90
7,"Cc1cc2c(cc1C(F)(F)F)N(C(=O)OC(C)(C)C)CCC[C@@H]2N(Cc1cc(Cl)cc(C(F)(F)F)c1)c1nnn(C)n1 [Example 185, (S)-5-[(3-Chloro-5-trifluoromethyl-benzyl)-(2-methyl-2H-tetrazol-5-yl)-amino]-7-methyl-8-trifluoromethyl-2,3,4,5-tetrahydro-benzo[b]azepine-1-carboxylic acid tert-butyl ester]",155
8,"Cc1cc(N(Cc2cc(C(F)(F)F)cc(C(F)(F)F)c2)[C@H]2CCCN(C[C@H]3CC[C@H](CC(=O)O)CC3)c3cc(C(F)(F)F)c(C)cc32)on1 [Example 94, (4-{5-[(3,5-Bis-trifluoromethyl-benzyl)-(3-methyl-isoxazol-5-yl)-amino]-7-methyl-8-trifluoromethyl-2,3,4,5-tetrahydro-benzo[b]azepin-1-ylmethyl}-cyclohexyl)-acetic acid]",154
9,"Cc1cc2c(cc1C(F)(F)F)N(Cc1ccc(O)c(C(=O)O)c1)CCC[C@@H]2N(Cc1cc(C(F)(F)F)cc(C(F)(F)F)c1)c1nnn(C)n1 [Example 141, (S)-5-{5-[(3,5-Bis-trifluoromethyl-benzyl)-(2-methyl-2H-tetrazol-5-yl)-amino]-7-methyl-8-trifluoromethyl-2,3,4,5-tetrahydro-benzo[b]azepin-1-ylmethyl}-2-hydroxy-benzoic acid]",74
10,"Cc1cc2c(cc1C(F)(F)F)N(C1CCC(C(=O)O)CC1)CCC[C@@H]2N(Cc1cc(C(F)(F)F)cc(C(F)(F)F)c1)c1nnn(C)n1 (stereo partly drawn) [Example 175, (S)-4-{5-[(3,5-Bis-trifluoromethyl-benzyl)-(2-methyl-2H-tetrazol-5-yl)-amino]-7-methyl-8-trifluoromethyl-2,3,4,5-tetrahydro-benzo[b]azepin-1-yl}-cyclohexanecarboxylic acid]",100
11,"Cn1nnc(N(Cc2cc(C(F)(F)F)cc(C(F)(F)F)c2)[C@H]2CCCN(CC3CCCC3)c3cc4c(cc32)CCCC4)n1 [Example 77, (3,5-Bis-trifluoromethyl-benzyl)-(1-cyclopentylmethyl-2,3,4,5,7,8,9,10-octahydro-1H-naphtho[2,3-b]azepin-5-yl)-(2-methyl-2H-tetrazol-5-yl)-amine]",229
12,"Cc1cc2c(cc1C(F)(F)F)N(CCC(C)(C)CC(=O)O)CCC[C@@H]2N(Cc1cc(C(F)(F)F)cc(C(F)(F)F)c1)c1nnn(C)n1 [Example 32, (S)-5-{5-[(3,5-Bis-trifluoromethyl-benzyl)-(2-methyl-2H-tetrazol-5-yl)-amino]-7-methyl-8-trifluoromethyl-2,3,4,5-tetrahydro-benzo[b]azepin-1-yl}-3,3-dimethyl-pentanoic acid]",128
13,"Cc1cc2c(c(C)c1C(F)(F)F)N(Cc1ccncc1)CCC[C@@H]2N(Cc1cc(C(F)(F)F)cc(C(F)(F)F)c1)c1nnn(C)n1 [Example 151, (S)-(3,5-Bis-trifluoromethyl-benzyl)-(7,9-dimethyl-1-pyridin-4-ylmethyl-8-trifluoromethyl-2,3,4,5-tetrahydro-1H-benzo[b]azepin-5-yl)-(2-methyl-2H-tetrazol-5-yl)-amine]",165
14,"Cc1cc2c(cc1C(F)(F)F)N(C1CCOCC1)CCC[C@@H]2N(Cc1cc(C(F)(F)F)cc(C(F)(F)F)c1)c1nnn(C)n1 [Example 139, (S)-(3,5-Bis-trifluoromethyl-benzyl)-[7-methyl-1-(tetrahydro-pyran-4-yl)-8-trifluoromethyl-2,3,4,5-tetrahydro-1H-benzo[b]azepin-5-yl]-(2-methyl-2H-tetrazol-5-yl)-amine]",130
15,"Cc1cc2c(cc1C(F)(F)F)N(Cc1ccc(C#N)cc1)CCC[C@@H]2N(Cc1cc(C(F)(F)F)cc(C(F)(F)F)c1)c1nnn(C)n1 [Example 192, (S)-4-{5-[(3,5-bis-trifluoromethyl-benzyl)-(2-methyl-2H-tetrazol-5-yl)-amino]-7-methyl-8-trifluoromethyl-2,3,4,5-tetrahydro-benzo[b]azepin-1-ylmethyl}-benzonitrile]",102
16,"Cc1cc2c(cc1C(F)(F)F)N(Cc1nccs1)CCC[C@@H]2N(Cc1cc(C(F)(F)F)cc(C(F)(F)F)c1)c1nnn(CCN)n1 [Example 129, (S)-[2-(2-Amino-ethyl)-2H-tetrazol-5-yl]-(3,5-bis-trifluoromethyl-benzyl)-(7-methyl-1-thiazol-2-ylmethyl-8-trifluoromethyl-2,3,4,5-tetrahydro-1H-benzo[b]azepin-5-yl)-amine]",92
